According to patent US10717746B2, “Chemical compounds” (ASTRAZENECA AB, priority 2015, dated 2020):
Counter-ions that a name gives are not always drawn. Like-named read-outs stand apart in the source and are kept apart here.

Columns and labels:
CDK9/CycT1 [1] = target: T1, CDK9/CycT1 (Homo sapiens (Human), UniProt P50750); assay: CDK9 kinase assay, ATP concentration at Km (mobility shift, Caliper LC3000); type: biochemical; conditions: 6 μM ATP, 3 nM CDK9/CycT1; read-out: CDK9 ATP conc. at Km (IC50)
T1 sequence (P50750 whole entry): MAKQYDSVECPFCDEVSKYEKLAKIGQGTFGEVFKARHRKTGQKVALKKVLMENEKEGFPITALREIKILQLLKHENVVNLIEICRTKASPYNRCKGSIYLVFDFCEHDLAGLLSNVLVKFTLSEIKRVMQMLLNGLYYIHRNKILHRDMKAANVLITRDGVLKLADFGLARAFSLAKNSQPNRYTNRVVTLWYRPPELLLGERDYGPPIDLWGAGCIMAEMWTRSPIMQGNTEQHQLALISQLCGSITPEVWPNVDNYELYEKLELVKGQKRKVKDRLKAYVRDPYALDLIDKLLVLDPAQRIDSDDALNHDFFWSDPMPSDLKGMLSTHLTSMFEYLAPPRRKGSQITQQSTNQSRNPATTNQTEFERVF
T1 sequence (O60563 whole entry partner): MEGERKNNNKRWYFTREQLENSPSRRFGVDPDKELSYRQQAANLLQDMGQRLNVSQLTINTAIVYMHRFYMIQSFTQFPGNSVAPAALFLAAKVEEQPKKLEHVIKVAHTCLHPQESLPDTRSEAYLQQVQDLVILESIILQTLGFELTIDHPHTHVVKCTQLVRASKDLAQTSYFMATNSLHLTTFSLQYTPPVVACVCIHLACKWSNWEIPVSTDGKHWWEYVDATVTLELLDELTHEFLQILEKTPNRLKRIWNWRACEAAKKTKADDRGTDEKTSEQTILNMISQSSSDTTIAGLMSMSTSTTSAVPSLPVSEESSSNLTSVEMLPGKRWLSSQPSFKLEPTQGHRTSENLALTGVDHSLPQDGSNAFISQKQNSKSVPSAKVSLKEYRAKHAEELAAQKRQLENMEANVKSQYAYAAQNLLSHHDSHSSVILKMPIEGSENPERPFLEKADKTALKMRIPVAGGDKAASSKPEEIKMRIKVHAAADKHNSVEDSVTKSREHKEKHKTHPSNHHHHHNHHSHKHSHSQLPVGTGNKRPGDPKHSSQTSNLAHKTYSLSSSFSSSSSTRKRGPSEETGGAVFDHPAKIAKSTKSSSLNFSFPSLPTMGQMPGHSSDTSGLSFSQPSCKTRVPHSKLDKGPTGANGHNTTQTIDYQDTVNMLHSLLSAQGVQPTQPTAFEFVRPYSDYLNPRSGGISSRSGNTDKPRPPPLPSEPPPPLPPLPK
Experimental: (§1) Activity of CDK9 was determined in-vitro using a mobility shift assay on a Caliper LC3000 reader (Caliper/PerkinElmer), which measures fluorescence of a phosphorylated and unphosphorylated fluorescent peptide substrate and calculates a ratiometric value to determine percent turnover. Phosphorylation of the peptide in the presence and absence of the compound of interest was determined. Enzyme/substrate/adenosine triphosphate (ATP) mix (3 nM CDK9/CycT1, 6 μM ATP, 1.5 μM CDK9 peptide substrate (FITC-X-GSRTPMY-NH2 (X: epsilon aminocaproic acid)), 50 mM HEPES (pH7.2), 1 mM dithiothreitol, 0.01% tween 20, 50 μg/mL bovine serum albumin, (final assay concentration)) (5 μl) was preincubated with 2 μl of compound for 15 minutes at 25° C. Reactions were initiated with 5 μl of 24 mM MgCl2 (10 mM final assay concentration) in buffer (50 mM HEPES (pH7.2), 1 mM dithiothreitol, 0.01% tween 20, 50 μg/mL bovine serum albumin, (final assay concentration) and incubated at 25° C. for 90 minutes and reactions were stopped by addition of 5 μl of Stop mix consisting of 65 mM HEPES (pH7.2), 35.5 mM EDTA, 0.227% Coatin Reagent 3 (Caliper/PerkinElmer), and 0.003% Tween. Phosphorylated and unphosphorylated substrate was detected by a Caliper LC3000 reader (Caliper/PerkinElmer) in the presence of separation buffer consisting of 100 mM HEPES (pH7.2), 15.8 mM EDTA, 0.1% Coatin Reagent 3 (Caliper/PerkinElmer), 0.015% Brij-35, 5% DMSO, and 5.6 mM MgCl2. CDK9 enzyme was acquired from Carna Biosciences (Catalogue number 04-110), the CDK9 peptide substrate was acquired from Intonation (Boston, Mass.; Custom-made).

MV411 cells = assay: MV411 caspase activity assay (Caspase-Glo 3/7); type: cell-based; conditions: Homo sapiens, MV4-11, 6 h, 6-hr treatment, caspase 3/7 induction
Experimental: MV411 Caspase Activity Assay
This is a cell assay to measure the induction of caspase activity in the acute myeloid leukemia cell line, MV411 after 6-hr treatment with CDK9 inhibitors. On the first day, 3000 MV411 cells/well were seeded in 50 μl of growth media (IMDM+10% FBS+2% L-Glu+P/S) in 384-well white plates, incubate plates in 37° C. incubator overnight. […] After 6 hour incubation in 37° C. incubator, 25 μl of Caspase-Glo 3/7 reagent (Promega) per well was added into each well, and plates were incubated at room temperature for 30 min in dark. The plates were read on an Infinite M200 microplate reader (Tecan) with a 100 ms integration time.

[2] = system: phosphorylation of RNA Polymerase II (RNAPII) at the Ser2 site in MCF7 cells; assay: MCF7 pSer2 RNAPII MOA assay (immunofluorescence); type: cell-based; conditions: 6-hr treatment, read-out: p-Ser 2 RNAPII (IC50)
Experimental: MCF7 pSer2 RNAPII MOA Assay
This is an immunofluorescence assay to determine the effect of CDK9 inhibitors on phosphorylation of RNA Polymerase II (RNAPII) at the Ser2 site in the breast cancer cell line, MCF7. On day one, 2500 MCF7 cells/well were seeded in 30 μl of growth media (RPMI+10% FBS+1% L-Glu+P/S) in 384-well black-wall clear-bottom plates, incubate plates overnight at 37° C. incubator. On the second day, the cells were treated with CDK9 inhibitors (7 point dose response ranging from 3 μM to 0.004 μM) using an ECHO liquid handler (Labcyte). After 6-hr treatment at 37° C. incubator, the cells were fixed with 30 µl/well 7.4% paraformaldehyde for 15 min at room temperature; the cells were washed twice with PBS, then permeabilized with 0.3% Triton X/PBS for 5 min at room temperature. After washing cells with PBS, the cells were incubated with 1:2000 diluted Anti-Ser2 Phospho-RNA pol II antibody (Covance MMS-129R) in 3% FBS/0.1% PBST overnight at 4° C. On the next day, the cells were washed twice with 0.1% PBST, then incubated with 1:1000 diluted Alexa Fluor 488 Goat-anti-mouse antibody (Life Technologies A-11001) and 1:4000 diluted DAPI at room temperature in dark. After one hour incubation, the cells were washed twice with 0.1% PBST, and once with PBS. The plates where sealed and read on an Acumen eX3 microplate cytometer (TTP Labtech) to assess phosphorylation level in each well.

CDK9/CycT1 [3] = target: T1, CDK9/CycT1; assay: CDK9 kinase assay, high ATP concentration (5 mM ATP); type: biochemical; conditions: 1.5 nM CDK9, read-out: CDK9 High ATP conc. (IC50)
Experimental: as §1
High ATP assays were run the same way with the following modifications: the final assay concentration of CDK9 was 1.5 nM and the final assay concentration of ATP was 5 mM.

| Compound | IC50 (CDK9/CycT1 [1]) [nM] | IC50 (MV411 cells) [nM] | IC50 ([2]; Homo sapiens, MCF7, 6 h) [nM] | IC50 (CDK9/CycT1 [3]) [nM] | IC50 [2] [nM] |
| --- | --- | --- | --- | --- | --- |
| O=C(Nc1cc(-c2cnn3c2CCCC3)c(Cl)cn1)[C@H]1CCC[C@@H](NC(=O)[C@@H]2CCCO2)C1 [Example 35, (S)—N-((1R,3S)-3-((5-chloro-4-(4,5,6,7-tetrahydropyrazolo[1,5-a]pyridin-3-yl)pyridin-2-yl)carbamoyl)cyclohexyl)tetrahydrofuran-2-carboxamide] | < 3 | 125 | 40 | 23 | – |
| CC(=O)N[C@@H]1CCC[C@H](C(=O)Nc2cc(-c3cnn4c3CC(C)(C)C4)c(Cl)cn2)C1 [Example 14, (1S,3R)-3-acetamido-N-(5-chloro-4-(5,5-dimethyl-5,6-dihydro-4H-pyrrolo[1,2-b]pyrazol-3-yl)pyridin-2-yl)cyclohexanecarboxamide] | – | 14 | 23 | – | – |
| CC(=O)N[C@H]1CCC[C@H](C(=O)Nc2cc(-c3cnn4c3CC(C)(C)C4)c(Cl)cn2)C1 (single isomer, unassigned) [Example 59, trans-3-acetamido-N-(5-chloro-4-(5,5-dimethyl-5,6-dihydro-4H-pyrrolo[1,2-b]pyrazol-3-yl)pyridin-2-yl)cyclohexanecarboxamide] | – | – | – | – | > 2440 |
| CC(=O)N[C@@H]1CCC[C@H](C(=O)Nc2cc(-c3cnc4n3CC(C)(C)C4)c(Cl)cn2)C1 [Example 22, (1S,3R)-3-acetamido-N-(5-chloro-4-(6,6-dimethyl-6,7-dihydro-5H-pyrrolo[1,2-a]imidazol-3-yl)pyridin-2-yl)cyclohexanecarboxamide] | – | 54 | 36 | – | – |
| N[C@@H]1CCC[C@H](C(=O)Nc2cc(-c3cnn4c3CCCC4)c(Cl)cn2)C1 [Example 31b, (1S,3R)-3-amino-N-(5-chloro-4-(4,5,6,7-tetrahydropyrazolo[1,5-a]pyridin-3-yl)pyridin-2-yl)cyclohexanecarboxamide dihydrochloride] | 36 | – | 1800 | 2640 | – |
| CC(=O)N[C@@H]1CCC[C@H](C(=O)Nc2cc(-c3cnn4c3CC(C)(C)C4)c(C)cn2)C1 [Example 47, (1S,3R)-3-acetamido-N-(4-(5,5-dimethyl-5,6-dihydro-4H-pyrrolo[1,2-b]pyrazol-3-yl)-5-methylpyridin-2-yl)cyclohexanecarboxamide] | – | 74 | 40 | – | – |
| CC(=O)N[C@@H]1CCC[C@H](C(=O)Nc2cc(-c3cnn4c3C(O)C(C)(C)C4)c(Cl)cn2)C1 (single isomer, unassigned) [Example 79] | < 3 | – | – | < 3 | 10 |
| CC1(C)Cc2c(-c3cc(NC(=O)[C@H]4CCC[C@@H](NC(=O)CCO)C4)ncc3Cl)cnn2C1 [Example 52, (1S,3R)—N-(5-chloro-4-(5,5-dimethyl-5,6-dihydro-4H-pyrrolo[1,2-b]pyrazol-3-yl)pyridin-2-yl)-3-(3-hydroxypropanamido)cyclohexanecarboxamide] | < 3 | – | – | 4 | – |
| CC(=O)N[C@@H]1CCC[C@H](C(=O)Nc2cc(-c3cnn4c3C(O)C(C)(C)C4)c(Cl)cn2)C1 (single isomer, unassigned) [Example 80] | 4 | – | – | 135 | 247 |

More lines, now with the values ahead:

| IC50 (CDK9/CycT1 [1]) [nM] | IC50 (MV411 cells) [nM] | IC50 ([2]; Homo sapiens, MCF7, 6 h) [nM] | IC50 (CDK9/CycT1 [3]) [nM] | IC50 [2] [nM] | Compound |
| --- | --- | --- | --- | --- | --- |
| < 3 | 92 | 36 | 26 | – | CC(=O)N[C@@H]1CCC[C@H](C(=O)Nc2cc(-c3cnn4c3CC(C)C4)c(Cl)cn2)C1 (single isomer, unassigned) [Example 42] |
| 5 | – | – | 246 | 193 | CC(=O)N[C@@H]1CCC[C@H](C(=O)Nc2cc(-c3cnn4c3CCC(C)C4)c(Cl)cn2)C1 (single isomer, unassigned) [Example 69] |
| < 3 | – | 131 | 53 | – | CC(=O)N[C@@H]1CCC[C@H](C(=O)Nc2cc(-c3cnn4c3CCC(C)C4)c(Cl)cn2)C1 (single isomer, unassigned) [Example 68] |
| < 3 | – | – | 20 | 73 | COC1CCc2c(-c3cc(NC(=O)[C@H]4CCC[C@@H](NC(C)=O)C4)ncc3Cl)cnn2C1 (single isomer, unassigned) [Example 70] |
| < 3 | – | – | 27 | 76 | CC(=O)N[C@@H]1CCC[C@H](C(=O)Nc2cc(-c3cnn4c3CC(C)C4)c(Cl)cn2)C1 (single isomer, unassigned) [Example 41] |
| – | 416 | 307 | – | – | CC(=O)N[C@H]1CCC[C@@H](C(=O)Nc2cc(-c3cnn4c3CC(C)(C)C4)c(Cl)cn2)C1 [Example 43, (1R,3S)-3-acetamido-N-(5-chloro-4-(5,5-dimethyl-5,6-dihydro-4H-pyrrolo[1,2-b]pyrazol-3-yl)pyridin-2-yl)cyclohexanecarboxamide] |
| – | 120 | 130 | – | – | CC(=O)N[C@@H]1CCC[C@H](C(=O)Nc2cc(-c3cnn4c3CCCC4)c(Cl)cn2)C1 [Example 2, (1S,3R)-3-acetamido-N-(5-chloro-4-(4,5,6,7-tetrahydropyrazolo[1,5-a]pyridin-3-yl)pyridin-2-yl)cyclohexanecarboxamide] |
| – | 4090 | > 3000 | – | – | CC(=O)N[C@H]1CCC[C@@H](C(=O)Nc2cc(-c3cnn4c3CCCC4)c(Cl)cn2)C1 [Example 9, (1R,3S)-3-acetamido-N-(5-chloro-4-(4,5,6,7-tetrahydropyrazolo[1,5-a]pyridin-3-yl)pyridin-2-yl)cyclohexanecarboxamide] |
| 16 | – | – | 1720 | > 2350 | COC1CCc2c(-c3cc(NC(=O)[C@H]4CCC[C@@H](NC(C)=O)C4)ncc3Cl)cnn2C1 (single isomer, unassigned) [Example 71] |
| < 3 | – | – | < 4 | 37 | CC(=O)N[C@@H]1CCC[C@H](C(=O)Nc2cc(-c3cnn4c3CC(C)CC4)c(Cl)cn2)C1 (single isomer, unassigned) [Example 65] |
| < 3 | – | – | 39 | 218 | COC1CCn2ncc(-c3cc(NC(=O)[C@H]4CCC[C@@H](NC(C)=O)C4)ncc3Cl)c2C1 (single isomer, unassigned) [Example 73] |
| – | – | – | – | > 3000 | CC(=O)N[C@H]1CCC[C@H](C(=O)Nc2cc(-c3cnn4c3CCCC4)c(Cl)cn2)C1 (single isomer, unassigned) [Example 61, trans-3-acetamido-N-(5-chloro-4-(4,5,6,7-tetrahydropyrazolo[1,5-a]pyridin-3-yl)pyridin-2-yl)cyclohexanecarboxamide] |
| – | – | – | – | 333 | CC(=O)N[C@H]1CCC[C@H](C(=O)Nc2cc(-c3cnn4c3CCCC4)c(Cl)cn2)C1 (single isomer, unassigned) [Example 62, trans-3-acetamido-N-(5-chloro-4-(4,5,6,7-tetrahydropyrazolo[1,5-a]pyridin-3-yl)pyridin-2-yl)cyclohexanecarboxamide] |
